Data on 16 molecules can be found in patent US20240216369A1, “THE USE OF A SPLICING MODULATOR FOR A TREATMENT SLOWING PROGRESSION OF HUNTINGTON'S DISEASE” (Novartis AG, priority 2019, published 2024).

One assay concerns tHTT. Put plainly: Mutant and total HTT multiplex HTRF assay in Q48 HTT human embryonic stem cell line: tHTT. The assay is classed as cell-based. Particulars: Q48 HTT hESC, 48 hours. As to the method: (§1) The multiplex assay is performed in human embryonic stem cells (hESCs) which have been derived by Genea Biocells from human blastocysts of HD donors. Cells are plated at a density of 10,000 cells/well into 384-well collagen coated plates and left to adhere for 24 hours, compounds 1 to 82 are then added to cells and incubated for 48 hours (37° C., 5% CO2), cells are then lysed and the contents split into a black 384-well plate.
(§2) The black plates have a combination of HTRF labeled monoclonal antibodies added which recognize discrete areas of the HTT protein, the 2B7-Tb “donor” antibody (0.2 ng/well) recognizes a sequence at the N-terminus of the protein, an MW1-Alexa488 “acceptor 1” antibody (30 ng/well) recognizes an area in the polyQ region, whereas a MAB2166-d2 “acceptor 2” antibody (6 ng/well) recognizes a sequence beyond the polyQ region. The 2B7 antibody was obtained from Coriell (CH02024), the MW1 antibody from Millipore (MABN2427), and the MAB2166 antibody from Millipore (1HU-4C8).
(§3) These detection reagents are incubated with the cell lysate at room temperature for 4-6 hours before having their fluorescence quantified at 615 nm (donor) and 535 nm and 665 nm (acceptor 1 and 2 respectively). The donor/acceptor ratio between these signals indicates the relative quantities of mHTT and tHTT proteins. As shown in the Table 1, compounds 1 to 82 as described therein and in Table 2, had the following pIC50 values.

For another assay, the system named is mHTT. Description: Mutant and total HTT multiplex HTRF assay in Q48 HTT human embryonic stem cell line: mHTT. The format is cell-based. As to conditions: Q48 HTT hESC, 48 hours. Here is the method:
as §1, §2, §3

Turning to `CN(c1nnc(-c2cc(F)c(-c3cn[nH]c3)cc2Cl)s1)C1CC(C)(C)NC(C)(C)C1` [Compound 22, 5-(2-chloro-5-fluoro-4-(1H-pyrazol-4-yl)phenyl)-N-methyl-N-(2,2,6,6-tetramethylpiperidin-4-yl)-1,3,4-thiadiazol-2-amine], the “tHTT pIC50” value in the assay with tHTT came out at 7.1125. For the same molecule, in the assay with mHTT, the “Rating (based on mHTT potency)” value was “**** (a pIC50 value between 7.0 and 7.5 is indicated by four stars (****))”; the “mHTT pIC50” value is on record as 7.1945.
As for `Cc1nc2cc(O)c(-c3ccc(N(C)C4CC(C)(C)NC(C)(C)C4)nn3)cc2nc1C` [Compound 42, 2,3-dimethyl-7-(6-(methyl(2,2,6,6-tetramethylpiperidin-4-yl)amino)pyridazin-3-yl)quinoxalin-6-ol], in the assay on tHTT, the “tHTT pIC50” value is recorded as 6.885. Moreover, in the assay with mHTT, the “Rating (based on mHTT potency)” value is “*** (a pIC50 value between 6.5 and 7.0 is indicated by three stars (***))”; the “mHTT pIC50” value amounted to 6.92.
With `CN(c1ccc(-c2cc3c(cc2O)-c2nc(N)sc2C3)nn1)C1CC(C)(C)NC(C)(C)C1` [Compound 33, 2-amino-6-(6-(methyl(2,2,6,6-tetramethylpiperidin-4-yl)amino)pyridazin-3-yl)-8H-indeno[1,2-d]thiazol-5-ol], the “tHTT pIC50” value in the assay with tHTT stood at 7.001. Further, in the assay with mHTT, the “Rating (based on mHTT potency)” value was “**** (a pIC50 value between 7.0 and 7.5 is indicated by four stars (****))”; the “mHTT pIC50” value was 7.0085.
As to `CCOc1cc(C)nc2cc(O)c(-c3ccc(N(C)C4CC(C)(C)NC(C)(C)C4)nn3)cc12` [Compound 63, 4-ethoxy-2-methyl-6-(6-(methyl(2,2,6,6-tetramethylpiperidin-4-yl)amino)pyridazin-3-yl)quinolin-7-ol], the “tHTT pIC50” value with tHTT stood at 6.534. For the same molecule, in the assay on mHTT, the “Rating (based on mHTT potency)” value is “*** (a pIC50 value between 6.5 and 7.0 is indicated by three stars (***))”; the “mHTT pIC50” value was determined as 6.63.
Take `Oc1cc2ccccc2cc1-c1ccc(CC2CCNCC2)nn1` [Compound 82, 3-(6-(piperidin-4-ylmethyl)pyridazin-3-yl)naphthalen-2-ol]: the “tHTT pIC50” value with tHTT is less than 5. In the assay with mHTT, the “mHTT pIC50” value is less than 5.
As to `CN(c1ccc(-c2cc3c(=O)n(C)ccc3cc2O)nn1)C1CC(C)(C)NC(C)(C)C1` [Compound 2, 6-hydroxy-2-methyl-7-(6-(methyl(2,2,6,6-tetramethylpiperidin-4-yl)amino)pyridazin-3-yl)isoquinolin-1(2H)-one], in the assay on tHTT, the “tHTT pIC50” value turned out to be 7.6555. In addition, in the assay on mHTT, the “Rating (based on mHTT potency)” value is reported as “***** (a pIC50 value above 7.5 is indicated by five stars (*****))” and the “mHTT pIC50” value stood at 7.73.
Regarding `Cc1cnc2cc(O)c(-c3ccc(N(C)C4CC(C)(C)NC(C)(C)C4)nn3)cc2n1` [Compound 46, 2-methyl-7-(6-(methyl(2,2,6,6-tetramethylpiperidin-4-yl)amino)pyridazin-3-yl)quinoxalin-6-ol], the “tHTT pIC50” value with tHTT came to 6.778. Besides, in the assay on mHTT, the “Rating (based on mHTT potency)” value was “*** (a pIC50 value between 6.5 and 7.0 is indicated by three stars (***))”; the “mHTT pIC50” value came to 6.8485.
As for `CN(c1ccc(-c2ccc(-c3ccn(C)c(=O)c3)cc2O)nn1)C1CC(C)(C)NC(C)(C)C1` [Compound 5, 4-(3-hydroxy-4-(6-(methyl(2,2,6,6-tetramethylpiperidin-4-yl)amino)pyridazin-3-yl)phenyl)-1-methylpyridin-2(1H)-one], in the assay on tHTT, the “tHTT pIC50” value was found to be 7.5935. For the same molecule, in the assay with mHTT, the “Rating (based on mHTT potency)” value is listed as “***** (a pIC50 value above 7.5 is indicated by five stars (*****))” and the “mHTT pIC50” value came to 7.591.
Regarding `Oc1cc(-c2cn[nH]c2)ccc1-c1ccc(N2C[C@H]3CNC[C@H]3C2)nn1` [Compound 74, 2-(6-((3aR,6aS)-hexahydropyrrolo[3,4-c]pyrrol-2(1H)-yl)pyridazin-3-yl)-5-(1H-pyrazol-4-yl)phenol], in the assay with tHTT, the “tHTT pIC50” value was determined as 6.02. In the assay with mHTT, the “Rating (based on mHTT potency)” value is “** (a pIC50 value between 6 and 6.5 is indicated by two stars (**))”; the “mHTT pIC50” value was determined as 6.03.
For `CC1CC(Oc2ccc(-c3ccc(-c4cn[nH]c4)cc3O)nn2)CC(C)N1` (centres unmarked) [Compound 69, 2-(6-((2,6-dimethylpiperidin-4-yl)oxy)pyridazin-3-yl)-5-(1H-pyrazol-4-yl)phenol], the “tHTT pIC50” value with tHTT was found to be 7.089. In addition, in the assay with mHTT, the “Rating (based on mHTT potency)” value was “**** (a pIC50 value between 7.0 and 7.5 is indicated by four stars (****))”; the “mHTT pIC50” value came out at 7.1525.
For `Cn1ccc(-c2ccc(-c3ccc(OC4CC(C)(C)NC(C)(C)C4)nn3)c(O)c2)cc1=O` [Compound 29, 4-(3-hydroxy-4-(6-((2,2,6,6-tetramethylpiperidin-4-yl)oxy)pyridazin-3-yl)phenyl)-1-methylpyridin-2(1H)-one], the “tHTT pIC50” value in the assay on tHTT was 7.074. In addition, in the assay with mHTT, the “Rating (based on mHTT potency)” value is “**** (a pIC50 value between 7.0 and 7.5 is indicated by four stars (****))”; the “mHTT pIC50” value was found to be 7.0855.
As for `CCn1ccc2cc(O)c(-c3ccc(OC4CC(C)(C)NC(C)(C)C4)nn3)cc2c1=O` [Compound 24, 2-ethyl-6-hydroxy-7-(6-((2,2,6,6-tetramethylpiperidin-4-yl)oxy)pyridazin-3-yl)isoquinolin-1(2H)-one], in the assay on tHTT, the “tHTT pIC50” value stood at 7.168. Moreover, in the assay on mHTT, the “Rating (based on mHTT potency)” value is “**** (a pIC50 value between 7.0 and 7.5 is indicated by four stars (****))”; the “mHTT pIC50” value is 7.186.
Turning to `CN(c1ccc(-c2cc3ccc(OCCC(C)(C)O)cc3cc2O)nn1)C1CC(C)(C)NC(C)(C)C1` [Compound 68, 7-(3-hydroxy-3-methylbutoxy)-3-(6-(methyl(2,2,6,6-tetramethylpiperidin-4-yl)amino)pyridazin-3-yl)naphthalen-2-ol], the “tHTT pIC50” value in the assay with tHTT amounted to 6.488. Further, in the assay on mHTT, the “Rating (based on mHTT potency)” value was “*** (a pIC50 value between 6.5 and 7.0 is indicated by three stars (***))”; the “mHTT pIC50” value was found to be 6.529.
In the case of `CN(c1nnc(-c2ccc(-c3cn[nH]c3)cc2O)s1)C1CC(C)(C)NC(C)(C)C1` [Compound 13, 2-(5-(methyl(2,2,6,6-tetramethylpiperidin-4-yl)amino)-1,3,4-thiadiazol-2-yl)-5-(1H-pyrazol-4-yl)phenol], the “tHTT pIC50” value with tHTT was 7.383. Moreover, in the assay on mHTT, the “Rating (based on mHTT potency)” value was “**** (a pIC50 value between 7.0 and 7.5 is indicated by four stars (****))”; the “mHTT pIC50” value is 7.3545.
As to `COc1cc(-c2cn[nH]c2)c(F)c(F)c1-c1nnc(N(C)C2CC(C)(C)NC(C)(C)C2)s1` [Compound 65, 5-(2,3-difluoro-6-methoxy-4-(1H-pyrazol-4-yl)phenyl)-N-methyl-N-(2,2,6,6-tetramethylpiperidin-4-yl)-1,3,4-thiadiazol-2-amine], in the assay on tHTT, the “tHTT pIC50” value is listed as 6.5835. Moreover, in the assay with mHTT, the “Rating (based on mHTT potency)” value is “*** (a pIC50 value between 6.5 and 7.0 is indicated by three stars (***))”; the “mHTT pIC50” value is listed as 6.5865.
`COc1cc(-c2cnn(C)c2)ccc1-c1nnc(N2CC3(CCNCC3)C2)s1` [Compound 75, 2-(2-methoxy-4-(1-methyl-1H-pyrazol-4-yl)phenyl)-5-(2,7-diazaspiro[3.5]nonan-2-yl)-1,3,4-thiadiazole]: the “tHTT pIC50” value in the assay with tHTT was determined as 6.4335. Besides, in the assay on mHTT, the “Rating (based on mHTT potency)” value is “** (a pIC50 value between 6 and 6.5 is indicated by two stars (**))”; the “mHTT pIC50” value worked out at 6.4375.
